Source: patent publication US20170056336A1, “CO-TARGETING ANDROGEN RECEPTOR SPLICE VARIANTS AND MTOR SIGNALING PATHWAY FOR THE TREATMENT OF CASTRATION-RESISTANT PROSTATE CANCER” (British Columbia Cancer Agency Branch, priority 2015, published 2017)

What was measured:
[1] = test system: mTOR and AR pathways in parental LNCaP cells; assay: Western blot analysis of mTOR and AR pathways in parental LNCaP cells; assay type: cell-based, human; details: BEZ-235 15 nM
LNCaP95 xenografts [2] = assay: Western blot analyses of protein lysates from xenografts; assay type: in vivo, mice
[3] = test system: genes regulated by FL-AR and AR-V7 in LNCaP95 cells; assay: Gene expression analysis (quantitative real-time RT-PCR) in LNCaP95 cells; assay type: cell-based, human
LNCaP95 cells = assay: Titration of BEZ-235 for cytotoxicity in LNCaP95 cells; assay type: cell-based, human
AR-V7 = biological target: T1, AR-V7 (Homo sapiens, UniProt P10275); assay: PB-luciferase assay in Cos-1 cells transfected with AR-V7; assay type: cell-based; details: 24 h, serum-free
T1 construct: expressed in transfected cells; host or cells: Cos-1
T1 sequence (P10275 1-644 isoform P10275-3): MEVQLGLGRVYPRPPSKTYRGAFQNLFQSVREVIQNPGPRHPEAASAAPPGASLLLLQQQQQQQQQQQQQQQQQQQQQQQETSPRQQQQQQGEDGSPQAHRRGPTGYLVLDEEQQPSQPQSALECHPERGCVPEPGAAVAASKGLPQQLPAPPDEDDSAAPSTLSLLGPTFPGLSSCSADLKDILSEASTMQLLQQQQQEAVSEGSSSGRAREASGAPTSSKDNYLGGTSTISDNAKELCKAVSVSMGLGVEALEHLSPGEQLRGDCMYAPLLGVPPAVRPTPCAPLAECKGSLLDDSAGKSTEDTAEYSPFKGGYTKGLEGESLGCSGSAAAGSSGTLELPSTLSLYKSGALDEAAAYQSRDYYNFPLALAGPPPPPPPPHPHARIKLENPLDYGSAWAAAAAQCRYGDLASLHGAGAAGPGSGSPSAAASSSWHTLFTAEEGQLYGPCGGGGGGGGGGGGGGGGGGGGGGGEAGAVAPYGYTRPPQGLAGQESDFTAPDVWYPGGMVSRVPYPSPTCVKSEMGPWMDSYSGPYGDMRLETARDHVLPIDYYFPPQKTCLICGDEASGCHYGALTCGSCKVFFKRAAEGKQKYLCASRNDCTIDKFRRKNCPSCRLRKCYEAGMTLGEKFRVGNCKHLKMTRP
Text: Ectopic protein levels of AR-V7 and AR-V567 in Cos-1 cells are shown relative to endogenous levels of FL-AR in LNCaP cells.

CDK1 = CDK1 (Homo sapiens, UniProt P06493); details: higher concentrations; read-out: concentration inhibiting CDK1; cited from earlier work
LNCaP95 xenografts [4] = assay: Immunohistochemistry of harvested xenografts; assay type: in vivo, mice; details: immunohistochemistry
EGFR/Erb1 = EGFR/Erb1 (Homo sapiens, UniProt P00533); details: higher concentrations; read-out: concentration inhibiting EGFR/Erb1; cited from earlier work
AR NTD = biological target: T2, AR NTD (Homo sapiens, UniProt P10275); assay: AR NTD transactivation assay in LNCaP cells; assay type: cell-based; details: 24 h
T2 sequence (P10275 1-558): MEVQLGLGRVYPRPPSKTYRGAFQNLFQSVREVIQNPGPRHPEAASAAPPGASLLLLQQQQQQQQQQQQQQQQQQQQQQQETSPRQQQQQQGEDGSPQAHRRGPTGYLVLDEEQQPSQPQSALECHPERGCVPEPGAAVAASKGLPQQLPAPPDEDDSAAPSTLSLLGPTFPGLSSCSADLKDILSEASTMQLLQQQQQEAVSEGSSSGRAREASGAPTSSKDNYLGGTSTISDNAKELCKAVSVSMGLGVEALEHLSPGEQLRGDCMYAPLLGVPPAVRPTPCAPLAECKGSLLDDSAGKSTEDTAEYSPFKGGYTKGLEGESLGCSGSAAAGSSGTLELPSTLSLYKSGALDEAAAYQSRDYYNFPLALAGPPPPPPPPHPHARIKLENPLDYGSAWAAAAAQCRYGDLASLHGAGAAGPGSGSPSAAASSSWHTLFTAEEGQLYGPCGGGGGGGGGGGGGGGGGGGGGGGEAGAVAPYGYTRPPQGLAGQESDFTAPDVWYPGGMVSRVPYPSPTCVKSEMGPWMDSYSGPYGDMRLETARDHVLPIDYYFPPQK
Description: Transactivation assays of the AR NTD were performed in LNCaP and LNCaP95 cells cotransfected with p5xGal4UAS-TATA-luciferase and AR NTD-Gal4DBD (FIG. 2D). […] LNCaP95 cells were harvested 24 h after the treatment of indicated compounds.
The AR NTD is essential for full transcriptional activities (Quayle, S. N. et. al., PNAS 2007, 104, 1331-1336). In LNCaP cells, transactivation of the AR NTD can be induced with IL-6 or by stimulation of the PKA pathway with FSK. In LNCaP95 cells, there is high intrinsic activity of the AR NTD which cannot be further induced by stimulation of these pathways.

[5] = harvested tumors, Compound A 100 mg/kg, BEZ-235 5 mg/kg
[6] = xenografts harvested 1 h after last treatment, BEZ-235 5 mg/kg
[7] = BEZ-235 orally daily at 5 mg/kg body weight

Chain of CDK1 (P06493 whole entry, species assumed): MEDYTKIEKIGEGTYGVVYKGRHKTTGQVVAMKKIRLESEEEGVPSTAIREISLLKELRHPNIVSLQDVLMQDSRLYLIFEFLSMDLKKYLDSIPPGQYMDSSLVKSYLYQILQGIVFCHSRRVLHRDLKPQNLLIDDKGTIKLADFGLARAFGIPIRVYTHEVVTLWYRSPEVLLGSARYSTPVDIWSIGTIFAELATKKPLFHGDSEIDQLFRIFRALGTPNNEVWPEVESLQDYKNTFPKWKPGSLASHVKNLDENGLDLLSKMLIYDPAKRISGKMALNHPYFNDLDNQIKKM
Chain of CDK1 (P14635 whole entry partner, species assumed): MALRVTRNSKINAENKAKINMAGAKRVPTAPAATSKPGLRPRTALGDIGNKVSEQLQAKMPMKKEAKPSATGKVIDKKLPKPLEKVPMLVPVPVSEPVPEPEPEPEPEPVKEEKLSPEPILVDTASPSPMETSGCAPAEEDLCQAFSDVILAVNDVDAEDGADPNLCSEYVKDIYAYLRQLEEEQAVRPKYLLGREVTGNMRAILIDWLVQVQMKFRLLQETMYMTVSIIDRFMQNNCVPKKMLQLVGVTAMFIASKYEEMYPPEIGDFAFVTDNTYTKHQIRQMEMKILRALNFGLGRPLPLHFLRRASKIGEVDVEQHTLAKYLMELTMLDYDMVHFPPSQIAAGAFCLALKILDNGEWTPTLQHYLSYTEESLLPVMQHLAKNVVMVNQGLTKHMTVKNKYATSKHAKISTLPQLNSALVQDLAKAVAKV
Chain of EGFR/Erb1 (P00533 25-1210): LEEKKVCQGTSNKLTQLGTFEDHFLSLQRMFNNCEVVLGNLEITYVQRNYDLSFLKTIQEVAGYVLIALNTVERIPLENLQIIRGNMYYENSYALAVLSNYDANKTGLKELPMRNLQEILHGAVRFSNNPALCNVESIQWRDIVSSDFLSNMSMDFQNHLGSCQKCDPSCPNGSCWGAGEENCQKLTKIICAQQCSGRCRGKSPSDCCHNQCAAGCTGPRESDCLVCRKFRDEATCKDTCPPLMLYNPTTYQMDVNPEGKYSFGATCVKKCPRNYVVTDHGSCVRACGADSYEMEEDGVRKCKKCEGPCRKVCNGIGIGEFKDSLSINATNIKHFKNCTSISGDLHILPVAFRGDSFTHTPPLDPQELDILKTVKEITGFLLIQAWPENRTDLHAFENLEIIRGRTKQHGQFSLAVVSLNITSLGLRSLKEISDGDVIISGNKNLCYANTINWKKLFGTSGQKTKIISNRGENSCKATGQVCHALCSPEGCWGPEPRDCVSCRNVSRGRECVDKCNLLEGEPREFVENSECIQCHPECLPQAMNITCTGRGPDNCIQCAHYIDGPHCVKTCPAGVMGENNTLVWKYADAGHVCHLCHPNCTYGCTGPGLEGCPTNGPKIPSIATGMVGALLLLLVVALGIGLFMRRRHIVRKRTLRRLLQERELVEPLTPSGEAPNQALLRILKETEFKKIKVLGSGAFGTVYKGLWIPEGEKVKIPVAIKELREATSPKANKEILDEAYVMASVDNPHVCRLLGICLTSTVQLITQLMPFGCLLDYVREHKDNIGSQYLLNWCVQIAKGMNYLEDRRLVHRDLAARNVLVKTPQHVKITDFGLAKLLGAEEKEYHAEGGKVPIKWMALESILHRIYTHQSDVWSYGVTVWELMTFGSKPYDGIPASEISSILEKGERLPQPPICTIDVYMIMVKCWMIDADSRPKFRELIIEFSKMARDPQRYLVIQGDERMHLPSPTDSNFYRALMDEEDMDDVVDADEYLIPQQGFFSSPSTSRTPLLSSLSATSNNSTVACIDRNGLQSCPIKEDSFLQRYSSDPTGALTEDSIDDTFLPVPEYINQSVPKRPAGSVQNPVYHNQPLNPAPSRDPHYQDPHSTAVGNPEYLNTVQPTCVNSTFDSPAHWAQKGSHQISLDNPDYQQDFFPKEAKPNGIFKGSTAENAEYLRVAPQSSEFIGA

SMILES: Cn1c(=O)n(-c2ccc(C(C)(C)C#N)cc2)c2c3cc(-c4cnc5ccccc5c4)ccc3ncc21 [BEZ-235, 2-methyl-2-[4-(3-methyl-2-oxo-8-quinolin-3-ylimidazo[4,5-c]quinolin-1-yl)phenyl]propanenitrile]
- pAkt ([1]; LNCaP cells): no effect
- levels of FL-AR ([1]; parental LNCaP cells, absence of androgen): increased
- PSA protein ([1]; parental LNCaP cells, regardless of androgen status): increased
- levels of p4EBP1 (LNCaP95 xenografts [2]; harvested tumors, normalized to total 4EBP1): no significant change
- levels of pAkt (LNCaP95 xenografts [2]; harvested tumors, normalized to total Akt): no significant change
- protein levels of UBE2C (LNCaP95 xenografts [2]; [5]): reduced
- protein levels of pS6 (LNCaP95 xenografts [2]; [5]): reduced
- protein levels of FKBP5 (LNCaP95 xenografts [2]; in vivo, monotherapies): reduced
- protein levels of AR-V7 (LNCaP95 xenografts [2]; [6]): reduced
- protein levels of FL-AR (LNCaP95 xenografts [2]; [6]): reduced
- TMPRSS2 or FKBP5 transcripts in response to BEZ-235 [3]: No similar effects
- levels of FL-AR transcript [3]: did not increase
- increase in transcript levels of AR-V7 ([3]; absence of androgen): greater than 2 fold
- levels of PSA transcript ([3]; absence of androgen): induced
- transcript levels of AR-V7 target genes (UBE2C, CDC20, Akt1) ([3]; absence of androgen): consistently reduced
- androgen-induced levels of PSA transcripts ([3]; compared to androgen alone): significantly increased
- UBE2C levels ([3]; monotherapy, regardless of androgen): attenuated
- cytotoxicity (LNCaP95 cells; 500 nM BEZ-235): enormous cytotoxicity
- non-toxic concentration (LNCaP95 cells; titration experiments): 15 nM
- transcriptional activity of AR-V7 (AR-V7): no effect
- IC50 (CDK1): > 10 µM
- UBE2C staining (LNCaP95 xenografts [4]): reduced
- pS6 staining (LNCaP95 xenografts [4]): reduced
- IC50 (EGFR/Erb1): > 8.5 µM
- AR-NTD transactivation induced by FSK (AR NTD; FSK 50 uM): no effect
- AR-NTD transactivation induced by IL-6 (AR NTD; IL-6 50 ng/ml): significantly inhibited
- mortality of the animals (BEZ-235 45 mg/kg body weight): 66%
- mTOR in tumors [7]: sufficient to block
- pAkt in tumors [7]: not
- toxicity [7]: non-toxic
